# Results published in ChEMBL document CHEMBL4651402, “Screening of ~5500 FDA-approved drugs and clinical candidates for anti-SARS-CoV-2 activity” (2021).
# Test system: SARS-CoV-2
# Assay: microbe, parasite or virus in culture
# Format: functional, organism-based, Chlorocebus sabaeus, Vero C1008
# Details: Severe acute respiratory syndrome coronavirus 2, Vero C1008, 48 h; read-out: IC50
row,SMILES,IC50 [µM]
1,O=c1ccc2ccc(OCCCCN3CCN(c4cccc5sccc45)CC3)cc2[nH]1 [BREXPIPRAZOLE],> 100
2,CN(C)C(=O)c1cc2cnc(Nc3ccc(N4CCNCC4)cn3)nc2n1C1CCCC1 [RIBOCICLIB],> 100
3,CC[C@H](C(=O)[C@H](C)[C@@H](O)[C@H](C)CCc1ccc(C)c(O)c1C(=O)O)[C@@H]1O[C@@](CC)([C@H]2CC[C@](O)(CC)[C@@H](C)O2)C[C@@H]1C,1.07
4,CCCCc1oc2ccc(NS(C)(=O)=O)cc2c1C(=O)c1ccc(OCCCN(CCCC)CCCC)cc1 [DRONEDARONE],> 100
5,CCCSc1ccccc1N1CCN(CCCCn2c(=O)[nH]c3ccccc3c2=O)CC1 [TIOPERIDONE],> 100
6,COc1ccc([C@@H](Cc2ccncc2)c2ccccc2)cc1OC1CCCC1,> 100
7,OC1(c2ccc(Cl)c(C(F)(F)F)c2)CCN(CCCC(c2ccc(F)cc2)c2ccc(F)cc2)CC1 [PENFLURIDOL],> 100
8,CN1CCCC(CC2c3ccccc3Sc3ccccc32)C1 (centres undefined) [METHIXENE],> 100
9,OC(Cn1cncn1)(Cn1cnc(/C=C/c2ccc(OCC(F)(F)C(F)F)cc2)n1)c1ccc(F)cc1F (centres undefined),> 100
10,CC(C)(C)c1ccc(C(O)CCCN2CCC(C(O)(c3ccccc3)c3ccccc3)CC2)cc1 (centres undefined) [TERFENADINE],> 100
11,CN(C)CC/C=C1\c2ccccc2OCc2c1oc1ccccc21,> 100
12,CC(=O)N1CCN([C@H]2CCN(C(=O)N(C)[C@H](C)c3cc(C(F)(F)F)cc(C(F)(F)F)c3)[C@@H](c3ccc(F)cc3C)C2)CC1 [CASOPITANT],> 25.1
13,COc1cc2c(N3CCN(C(=O)Nc4ccc(OC(C)C)cc4)CC3)ncnc2cc1OCCCN1CCCCC1 [TANDUTINIB],> 100
14,CCN(CC)CCNC(=O)c1cc(Cl)c(NC(=O)COc2ccc(Cl)cc2)cc1OC [CLOXACEPRIDE],> 100

# Same assay, conditions: Severe acute respiratory syndrome coronavirus 2, Vero C1008, 48 h; read-out: pIC50 (converted)
row,SMILES,IC50 [µM]
1,O=c1ccc2ccc(OCCCCN3CCN(c4cccc5sccc45)CC3)cc2[nH]1 [BREXPIPRAZOLE],> 100
2,CN(C)C(=O)c1cc2cnc(Nc3ccc(N4CCNCC4)cn3)nc2n1C1CCCC1 [RIBOCICLIB],> 100
3,CC[C@H](C(=O)[C@H](C)[C@@H](O)[C@H](C)CCc1ccc(C)c(O)c1C(=O)O)[C@@H]1O[C@@](CC)([C@H]2CC[C@](O)(CC)[C@@H](C)O2)C[C@@H]1C,1.07
4,CCCCc1oc2ccc(NS(C)(=O)=O)cc2c1C(=O)c1ccc(OCCCN(CCCC)CCCC)cc1 [DRONEDARONE],> 100
5,CCCSc1ccccc1N1CCN(CCCCn2c(=O)[nH]c3ccccc3c2=O)CC1 [TIOPERIDONE],> 100
6,COc1ccc([C@@H](Cc2ccncc2)c2ccccc2)cc1OC1CCCC1,> 100
7,OC1(c2ccc(Cl)c(C(F)(F)F)c2)CCN(CCCC(c2ccc(F)cc2)c2ccc(F)cc2)CC1 [PENFLURIDOL],> 100
8,CN1CCCC(CC2c3ccccc3Sc3ccccc32)C1 (centres undefined) [METHIXENE],> 100
9,OC(Cn1cncn1)(Cn1cnc(/C=C/c2ccc(OCC(F)(F)C(F)F)cc2)n1)c1ccc(F)cc1F (centres undefined),> 100
10,CC(C)(C)c1ccc(C(O)CCCN2CCC(C(O)(c3ccccc3)c3ccccc3)CC2)cc1 (centres undefined) [TERFENADINE],> 100
11,CN(C)CC/C=C1\c2ccccc2OCc2c1oc1ccccc21,> 100
12,CC(=O)N1CCN([C@H]2CCN(C(=O)N(C)[C@H](C)c3cc(C(F)(F)F)cc(C(F)(F)F)c3)[C@@H](c3ccc(F)cc3C)C2)CC1 [CASOPITANT],> 25.1
13,COc1cc2c(N3CCN(C(=O)Nc4ccc(OC(C)C)cc4)CC3)ncnc2cc1OCCCN1CCCCC1 [TANDUTINIB],> 100
14,CCN(CC)CCNC(=O)c1cc(Cl)c(NC(=O)COc2ccc(Cl)cc2)cc1OC [CLOXACEPRIDE],> 100

# Test system: SARS-CoV-2
# Assay: microbe, parasite or virus in culture
# Details: Severe acute respiratory syndrome coronavirus 2, Vero C1008, 48 h
row,SMILES,IC50 [µM]
1,O=c1ccc2ccc(OCCCCN3CCN(c4cccc5sccc45)CC3)cc2[nH]1 [BREXPIPRAZOLE],> 100
2,CN(C)C(=O)c1cc2cnc(Nc3ccc(N4CCNCC4)cn3)nc2n1C1CCCC1 [RIBOCICLIB],> 100
3,CC[C@H](C(=O)[C@H](C)[C@@H](O)[C@H](C)CCc1ccc(C)c(O)c1C(=O)O)[C@@H]1O[C@@](CC)([C@H]2CC[C@](O)(CC)[C@@H](C)O2)C[C@@H]1C,> 0.631
4,CCCCc1oc2ccc(NS(C)(=O)=O)cc2c1C(=O)c1ccc(OCCCN(CCCC)CCCC)cc1 [DRONEDARONE],~3.02
5,CCCSc1ccccc1N1CCN(CCCCn2c(=O)[nH]c3ccccc3c2=O)CC1 [TIOPERIDONE],9.12
6,COc1ccc([C@@H](Cc2ccncc2)c2ccccc2)cc1OC1CCCC1,> 100
7,OC1(c2ccc(Cl)c(C(F)(F)F)c2)CCN(CCCC(c2ccc(F)cc2)c2ccc(F)cc2)CC1 [PENFLURIDOL],> 100
8,CN1CCCC(CC2c3ccccc3Sc3ccccc32)C1 (centres undefined) [METHIXENE],9.55
9,OC(Cn1cncn1)(Cn1cnc(/C=C/c2ccc(OCC(F)(F)C(F)F)cc2)n1)c1ccc(F)cc1F (centres undefined),> 100
10,CC(C)(C)c1ccc(C(O)CCCN2CCC(C(O)(c3ccccc3)c3ccccc3)CC2)cc1 (centres undefined) [TERFENADINE],> 100
11,CN(C)CC/C=C1\c2ccccc2OCc2c1oc1ccccc21,18.2
12,CC(=O)N1CCN([C@H]2CCN(C(=O)N(C)[C@H](C)c3cc(C(F)(F)F)cc(C(F)(F)F)c3)[C@@H](c3ccc(F)cc3C)C2)CC1 [CASOPITANT],> 25.1
13,COc1cc2c(N3CCN(C(=O)Nc4ccc(OC(C)C)cc4)CC3)ncnc2cc1OCCCN1CCCCC1 [TANDUTINIB],> 100
14,CCN(CC)CCNC(=O)c1cc(Cl)c(NC(=O)COc2ccc(Cl)cc2)cc1OC [CLOXACEPRIDE],3.63

# Same assay, conditions: Severe acute respiratory syndrome coronavirus 2, Vero C1008, 48 h, read-out: pIC50 (converted)
row,SMILES,IC50 [µM]
1,O=c1ccc2ccc(OCCCCN3CCN(c4cccc5sccc45)CC3)cc2[nH]1 [BREXPIPRAZOLE],> 100
2,CN(C)C(=O)c1cc2cnc(Nc3ccc(N4CCNCC4)cn3)nc2n1C1CCCC1 [RIBOCICLIB],> 100
3,CC[C@H](C(=O)[C@H](C)[C@@H](O)[C@H](C)CCc1ccc(C)c(O)c1C(=O)O)[C@@H]1O[C@@](CC)([C@H]2CC[C@](O)(CC)[C@@H](C)O2)C[C@@H]1C,> 0.631
4,CCCCc1oc2ccc(NS(C)(=O)=O)cc2c1C(=O)c1ccc(OCCCN(CCCC)CCCC)cc1 [DRONEDARONE],~3.02
5,CCCSc1ccccc1N1CCN(CCCCn2c(=O)[nH]c3ccccc3c2=O)CC1 [TIOPERIDONE],9.12
6,COc1ccc([C@@H](Cc2ccncc2)c2ccccc2)cc1OC1CCCC1,> 100
7,OC1(c2ccc(Cl)c(C(F)(F)F)c2)CCN(CCCC(c2ccc(F)cc2)c2ccc(F)cc2)CC1 [PENFLURIDOL],> 100
8,CN1CCCC(CC2c3ccccc3Sc3ccccc32)C1 (centres undefined) [METHIXENE],9.55
9,OC(Cn1cncn1)(Cn1cnc(/C=C/c2ccc(OCC(F)(F)C(F)F)cc2)n1)c1ccc(F)cc1F (centres undefined),> 100
10,CC(C)(C)c1ccc(C(O)CCCN2CCC(C(O)(c3ccccc3)c3ccccc3)CC2)cc1 (centres undefined) [TERFENADINE],> 100
11,CN(C)CC/C=C1\c2ccccc2OCc2c1oc1ccccc21,18.2
12,CC(=O)N1CCN([C@H]2CCN(C(=O)N(C)[C@H](C)c3cc(C(F)(F)F)cc(C(F)(F)F)c3)[C@@H](c3ccc(F)cc3C)C2)CC1 [CASOPITANT],> 25.1
13,COc1cc2c(N3CCN(C(=O)Nc4ccc(OC(C)C)cc4)CC3)ncnc2cc1OCCCN1CCCCC1 [TANDUTINIB],> 100
14,CCN(CC)CCNC(=O)c1cc(Cl)c(NC(=O)COc2ccc(Cl)cc2)cc1OC [CLOXACEPRIDE],3.63

# Test system: not listed separately
# Assay: in vitro
# Details: chlorocebus sabaeus, Vero E6 (Vero C1008) cells, CC50
row,SMILES,CC50 at 48 h [µM]
1,O=c1ccc2ccc(OCCCCN3CCN(c4cccc5sccc45)CC3)cc2[nH]1 [BREXPIPRAZOLE],12
2,CN(C)C(=O)c1cc2cnc(Nc3ccc(N4CCNCC4)cn3)nc2n1C1CCCC1 [RIBOCICLIB],38.9
3,CC[C@H](C(=O)[C@H](C)[C@@H](O)[C@H](C)CCc1ccc(C)c(O)c1C(=O)O)[C@@H]1O[C@@](CC)([C@H]2CC[C@](O)(CC)[C@@H](C)O2)C[C@@H]1C,~5.37
4,CCCCc1oc2ccc(NS(C)(=O)=O)cc2c1C(=O)c1ccc(OCCCN(CCCC)CCCC)cc1 [DRONEDARONE],3.85
5,CCCSc1ccccc1N1CCN(CCCCn2c(=O)[nH]c3ccccc3c2=O)CC1 [TIOPERIDONE],7.24
6,COc1ccc([C@@H](Cc2ccncc2)c2ccccc2)cc1OC1CCCC1,23.4
7,OC1(c2ccc(Cl)c(C(F)(F)F)c2)CCN(CCCC(c2ccc(F)cc2)c2ccc(F)cc2)CC1 [PENFLURIDOL],3.59
8,CN1CCCC(CC2c3ccccc3Sc3ccccc32)C1 (centres undefined) [METHIXENE],10.1
9,OC(Cn1cncn1)(Cn1cnc(/C=C/c2ccc(OCC(F)(F)C(F)F)cc2)n1)c1ccc(F)cc1F (centres undefined),25.7
10,CC(C)(C)c1ccc(C(O)CCCN2CCC(C(O)(c3ccccc3)c3ccccc3)CC2)cc1 (centres undefined) [TERFENADINE],~5.13
11,CN(C)CC/C=C1\c2ccccc2OCc2c1oc1ccccc21,12.2
12,CC(=O)N1CCN([C@H]2CCN(C(=O)N(C)[C@H](C)c3cc(C(F)(F)F)cc(C(F)(F)F)c3)[C@@H](c3ccc(F)cc3C)C2)CC1 [CASOPITANT],17.8
13,COc1cc2c(N3CCN(C(=O)Nc4ccc(OC(C)C)cc4)CC3)ncnc2cc1OCCCN1CCCCC1 [TANDUTINIB],11.5
14,CCN(CC)CCNC(=O)c1cc(Cl)c(NC(=O)COc2ccc(Cl)cc2)cc1OC [CLOXACEPRIDE],2.85

# Same assay, conditions: chlorocebus sabaeus, Vero E6 (Vero C1008) cells, pCC50
row,SMILES,CC50 at 48 h [µM]
1,O=c1ccc2ccc(OCCCCN3CCN(c4cccc5sccc45)CC3)cc2[nH]1 [BREXPIPRAZOLE],12
2,CN(C)C(=O)c1cc2cnc(Nc3ccc(N4CCNCC4)cn3)nc2n1C1CCCC1 [RIBOCICLIB],38.9
3,CC[C@H](C(=O)[C@H](C)[C@@H](O)[C@H](C)CCc1ccc(C)c(O)c1C(=O)O)[C@@H]1O[C@@](CC)([C@H]2CC[C@](O)(CC)[C@@H](C)O2)C[C@@H]1C,~5.37
4,CCCCc1oc2ccc(NS(C)(=O)=O)cc2c1C(=O)c1ccc(OCCCN(CCCC)CCCC)cc1 [DRONEDARONE],3.8
5,CCCSc1ccccc1N1CCN(CCCCn2c(=O)[nH]c3ccccc3c2=O)CC1 [TIOPERIDONE],7.24
6,COc1ccc([C@@H](Cc2ccncc2)c2ccccc2)cc1OC1CCCC1,23.4
7,OC1(c2ccc(Cl)c(C(F)(F)F)c2)CCN(CCCC(c2ccc(F)cc2)c2ccc(F)cc2)CC1 [PENFLURIDOL],3.55
8,CN1CCCC(CC2c3ccccc3Sc3ccccc32)C1 (centres undefined) [METHIXENE],10
9,OC(Cn1cncn1)(Cn1cnc(/C=C/c2ccc(OCC(F)(F)C(F)F)cc2)n1)c1ccc(F)cc1F (centres undefined),25.7
10,CC(C)(C)c1ccc(C(O)CCCN2CCC(C(O)(c3ccccc3)c3ccccc3)CC2)cc1 (centres undefined) [TERFENADINE],~5.13
11,CN(C)CC/C=C1\c2ccccc2OCc2c1oc1ccccc21,12
12,CC(=O)N1CCN([C@H]2CCN(C(=O)N(C)[C@H](C)c3cc(C(F)(F)F)cc(C(F)(F)F)c3)[C@@H](c3ccc(F)cc3C)C2)CC1 [CASOPITANT],17.8
13,COc1cc2c(N3CCN(C(=O)Nc4ccc(OC(C)C)cc4)CC3)ncnc2cc1OCCCN1CCCCC1 [TANDUTINIB],11.5
14,CCN(CC)CCNC(=O)c1cc(Cl)c(NC(=O)COc2ccc(Cl)cc2)cc1OC [CLOXACEPRIDE],2.82
